Experimental data from US20110118337A1, “Method of Using Compositions Comprising MIR-192 and/or MIR-215 for the Treatment of Cancer” (Merck Sharp & Dohme Corp., priority 2008, published 2011).

Tested on: HCT116 DICER^ex5 cells
Assay: Gene expression profiling (Agilent 44K microarray) after transfection of miR-192/miR-215 duplex mimetics
Type: cell-based, human
Settings: 10 nM, vs mock-transfected
Protocol: Synthetic duplex mimetics of miR-192 and miR-215 (sequences shown in TABLE 1) or a control target Luciferase siRNA (Luc), shown in TABLE 1, were transfected (10 nM final concentration) into HCT116 DICER^ex5, a human colorectal cancer cell line with hypomorphic DICER function (Cummins, J. M., et al., PNAS 103:3687-3692 (2006)). The transfections were carried out using Lipofectamine RNAiMax (Invitrogen) per the manufacturer's instructions. At 10 and 24 hours post-transfection, total RNA was extracted and gene expression profiling was carried out with the Agilent 44K microarray in comparison to RNA isolated from mock-transfected HCT116DICER^ex5 cells. Microarray analysis was carried out as described in Linsley, P. S., et al., Mol Cell Biol 27:2240-2252 (2007). Gene expression data analysis was done either with the Rosetta Resolver gene expression analysis software (Version 7.1 Rosetta Biosoftware).

Substance: miR-215: Synthetic duplex mimetic of miR-215, guide AUGACCUAUGAAUUGACAGAC (SEQ ID NO:4), passenger SEQ ID NO:10 (sense CUGUCAAUUCAUAGGUCUUAU; listed as RNA, chemistry not given here; listed as Homo sapiens)
- BCL2 transcript fold change (10 hr): −1.09 fold change
- BRCA1 transcript fold change (10 hr): −1.04 fold change
- CDC7 transcript fold change (10 hr): −1.54 fold change
- CDC14A transcript fold change (10 hr): −1.05 fold change
- CDC73 transcript fold change (10 hr): −1.04 fold change
- CRK transcript fold change (10 hr): −1.43 fold change
- CTCF transcript fold change (10 hr): −1.53 fold change
- CUL5 transcript fold change (10 hr): −1.25 fold change
- DBF4B transcript fold change (10 hr): −1.07 fold change
- DEK transcript fold change (10 hr): −1.19 fold change
- DLG5 transcript fold change (10 hr): −1.89 fold change
- DTL transcript fold change (10 hr): −1.19 fold change
- EMP1 transcript fold change (10 hr): 1.11 fold change
- ERCC3 transcript fold change (10 hr): −1.25 fold change
- EXTL2 transcript fold change (10 hr): −1.32 fold change
- FGF2 transcript fold change (10 hr): −1.67 fold change
- HOXA10 transcript fold change (10 hr): −1.74 fold change
- HRH1 transcript fold change (10 hr): −1.52 fold change
- KIF14 transcript fold change (10 hr): 1.01 fold change
- KIF23 transcript fold change (10 hr): 1.01 fold change
- LMNB2 transcript fold change (10 hr): −1.55 fold change
- MACF1 transcript fold change (10 hr): −1.17 fold change
- MAD2L transcript fold change (10 hr): −1.31 fold change
- MCM3 transcript fold change (10 hr): −1.56 fold change
- MCM6 transcript fold change (10 hr): −1.04 fold change
- MCM10 transcript fold change (10 hr): −1.97 fold change
- MIS12 transcript fold change (10 hr): −1.28 fold change
- MKI67 transcript fold change (10 hr): −1.04 fold change
- MPHOSPH1 transcript fold change (10 hr): −1.46 fold change
- MTSS1 transcript fold change (10 hr): −1.07 fold change
- NBN transcript fold change (10 hr): −1.39 fold change
- NCAPH transcript fold change (10 hr): −1.02 fold change
- NEK1 transcript fold change (10 hr): −1.16 fold change
- NFIB transcript fold change (10 hr): −1.38 fold change
- NFYA transcript fold change (10 hr): −1.25 fold change
- NIN transcript fold change (10 hr): −1.12 fold change
- PAFAH1B1 transcript fold change (10 hr): −1.31 fold change
- PAPD5 transcript fold change (10 hr): −1.31 fold change
- PFTK1 transcript fold change (10 hr): 1.05 fold change
- PIM1 transcript fold change (10 hr): −1.13 fold change
- PLAU transcript fold change (10 hr): −1.77 fold change
- PLS3 transcript fold change (10 hr): −1.56 fold change
- POLQ transcript fold change (10 hr): −1.1 fold change
- POLS transcript fold change (10 hr): −1.17 fold change
- PPP1CA transcript fold change (10 hr): −1.76 fold change
- PRPF38A transcript fold change (10 hr): −1.09 fold change
- RACGAP1 transcript fold change (10 hr): −1.31 fold change
- RAD1 transcript fold change (10 hr): −1.12 fold change
- RAD21 transcript fold change (10 hr): −1.32 fold change
- RAD51 transcript fold change (10 hr): 1.05 fold change
- RAP1GAP transcript fold change (10 hr): −1.21 fold change
- RB1 transcript fold change (10 hr): −1.25 fold change
- SEPT10 transcript fold change (10 hr): −1.6 fold change
- SERTAD2 transcript fold change (10 hr): −1.09 fold change
- SH3BP4 transcript fold change (10 hr): −1.38 fold change
- SMARCB1 transcript fold change (10 hr): −1.42 fold change
- TDG transcript fold change (10 hr): −1.54 fold change
- TDP1 transcript fold change (10 hr): −1.5 fold change
- TOP1 transcript fold change (10 hr): −1.64 fold change
- TUBGCP3 transcript fold change (10 hr): −1.41 fold change
- USP1 transcript fold change (10 hr): −1.16 fold change
- UVRAG transcript fold change (10 hr): −1.17 fold change
- BCL2 transcript fold change (24 hr): −1.59 fold change
- BRCA1 transcript fold change (24 hr): −1.43 fold change
- CDC7 transcript fold change (24 hr): −2.04 fold change
- CDC14A transcript fold change (24 hr): −1.2 fold change
- CDC73 transcript fold change (24 hr): −1.1 fold change
- CRK transcript fold change (24 hr): −1.52 fold change
- CTCF transcript fold change (24 hr): −1.66 fold change
- CUL5 transcript fold change (24 hr): −1.37 fold change
- DBF4B transcript fold change (24 hr): −1.33 fold change
- DEK transcript fold change (24 hr): −1.42 fold change
- DLG5 transcript fold change (24 hr): −2.03 fold change
- DTL transcript fold change (24 hr): −1.46 fold change
- EMP1 transcript fold change (24 hr): 1.04 fold change
- ERCC3 transcript fold change (24 hr): −1.36 fold change
- EXTL2 transcript fold change (24 hr): −1.59 fold change
- FGF2 transcript fold change (24 hr): −2.12 fold change
- HOXA10 transcript fold change (24 hr): −2.57 fold change
- HRH1 transcript fold change (24 hr): −1.63 fold change
- KIF14 transcript fold change (24 hr): −1.53 fold change
- KIF23 transcript fold change (24 hr): −1.36 fold change
- LMNB2 transcript fold change (24 hr): −1.92 fold change
- MACF1 transcript fold change (24 hr): −1.55 fold change
- MAD2L transcript fold change (24 hr): −1.84 fold change
- MCM3 transcript fold change (24 hr): −1.96 fold change
- MCM6 transcript fold change (24 hr): −1.4 fold change
- MCM10 transcript fold change (24 hr): −2.67 fold change
- MIS12 transcript fold change (24 hr): −1.77 fold change
- MKI67 transcript fold change (24 hr): −1.52 fold change
- MPHOSPH1 transcript fold change (24 hr): −1.94 fold change
- MTSS1 transcript fold change (24 hr): −1.29 fold change
- NBN transcript fold change (24 hr): −1.41 fold change
- NCAPH transcript fold change (24 hr): −1.32 fold change
- NEK1 transcript fold change (24 hr): −1.35 fold change
- NFIB transcript fold change (24 hr): −1.91 fold change
- NFYA transcript fold change (24 hr): −1.18 fold change
- NIN transcript fold change (24 hr): −1.42 fold change
- PAFAH1B1 transcript fold change (24 hr): −1.6 fold change
- PAPD5 transcript fold change (24 hr): −1.22 fold change
- PFTK1 transcript fold change (24 hr): −1.28 fold change
- PIM1 transcript fold change (24 hr): −1.65 fold change
- PLAU transcript fold change (24 hr): −1.91 fold change
- PLS3 transcript fold change (24 hr): −1.84 fold change
- POLQ transcript fold change (24 hr): −1.23 fold change
- POLS transcript fold change (24 hr): −1.38 fold change
- PPP1CA transcript fold change (24 hr): −2.42 fold change
- PRPF38A transcript fold change (24 hr): −1.17 fold change
- RACGAP1 transcript fold change (24 hr): −1.84 fold change
- RAD1 transcript fold change (24 hr): −1.38 fold change
- RAD21 transcript fold change (24 hr): −1.52 fold change
- RAD51 transcript fold change (24 hr): −1.35 fold change
- RAP1GAP transcript fold change (24 hr): −1.35 fold change
- RB1 transcript fold change (24 hr): −1.39 fold change
- SEPT10 transcript fold change (24 hr): −1.95 fold change
- SERTAD2 transcript fold change (24 hr): −1.1 fold change
- SH3BP4 transcript fold change (24 hr): −1.67 fold change
- SMARCB1 transcript fold change (24 hr): −1.42 fold change
- TDG transcript fold change (24 hr): −1.55 fold change
- TDP1 transcript fold change (24 hr): −1.8 fold change
- TOP1 transcript fold change (24 hr): −1.76 fold change
- TUBGCP3 transcript fold change (24 hr): −1.73 fold change
- USP1 transcript fold change (24 hr): −1.38 fold change
- UVRAG transcript fold change (24 hr): −1.43 fold change
